The target of data set [1] is T1, DNA ligase 1 (Homo sapiens, UniProt P18858). Nature of the data set: Inhibition of human DNA ligase 1 at 25 uM using nicked DNA as substrate after 30 mins relative to control.
Data set [2] addresses T1, DNA ligase 1. Nature of the data set: Inhibition of human DNA ligase 1 expressed in Escherichia coli BL21DE3RP cells at 50 uM using 52-mer DNA/25-mer DNA/27-mer DNA as substrate after 30 mins by Cyanin3 dye-based fluorescence assay relative to control.
For the next data set, the system named is HEK293. Description: Cytotoxicity against HEK293 cells at 100 uM relative to control. The note with it: human, hek293, 100 µM. The format is cell-based.
The next data set concerns HCT-116. Nature of the data set: Antiproliferative activity against human HCT116 cells at 100 uM relative to control. It is filed as functional.
A further data set has as its system MDA-MB-231. Description: Antiproliferative activity against human MDA-MB-231 cells at 100 uM relative to control. The format is functional.
The next data set concerns HepG2. Nature of the data set: Antiproliferative activity against human HepG2 cells at 100 uM relative to control. The format is functional.
Another data set deals with DLD-1. Nature of the data set: Antiproliferative activity against human DLD1 cells at 100 uM relative to control. The format is functional.
The subject of another data set is A549. Description: Antiproliferative activity against human A549 cells at 100 uM relative to control. It is filed as functional.

The results in this text go back to ChEMBL document CHEMBL4334494, “Recent advances in the targeting of human DNA ligase I as a potential new strategy for cancer treatment” (Eur J Med Chem, 2019).

T1 sequence (P18858 whole entry): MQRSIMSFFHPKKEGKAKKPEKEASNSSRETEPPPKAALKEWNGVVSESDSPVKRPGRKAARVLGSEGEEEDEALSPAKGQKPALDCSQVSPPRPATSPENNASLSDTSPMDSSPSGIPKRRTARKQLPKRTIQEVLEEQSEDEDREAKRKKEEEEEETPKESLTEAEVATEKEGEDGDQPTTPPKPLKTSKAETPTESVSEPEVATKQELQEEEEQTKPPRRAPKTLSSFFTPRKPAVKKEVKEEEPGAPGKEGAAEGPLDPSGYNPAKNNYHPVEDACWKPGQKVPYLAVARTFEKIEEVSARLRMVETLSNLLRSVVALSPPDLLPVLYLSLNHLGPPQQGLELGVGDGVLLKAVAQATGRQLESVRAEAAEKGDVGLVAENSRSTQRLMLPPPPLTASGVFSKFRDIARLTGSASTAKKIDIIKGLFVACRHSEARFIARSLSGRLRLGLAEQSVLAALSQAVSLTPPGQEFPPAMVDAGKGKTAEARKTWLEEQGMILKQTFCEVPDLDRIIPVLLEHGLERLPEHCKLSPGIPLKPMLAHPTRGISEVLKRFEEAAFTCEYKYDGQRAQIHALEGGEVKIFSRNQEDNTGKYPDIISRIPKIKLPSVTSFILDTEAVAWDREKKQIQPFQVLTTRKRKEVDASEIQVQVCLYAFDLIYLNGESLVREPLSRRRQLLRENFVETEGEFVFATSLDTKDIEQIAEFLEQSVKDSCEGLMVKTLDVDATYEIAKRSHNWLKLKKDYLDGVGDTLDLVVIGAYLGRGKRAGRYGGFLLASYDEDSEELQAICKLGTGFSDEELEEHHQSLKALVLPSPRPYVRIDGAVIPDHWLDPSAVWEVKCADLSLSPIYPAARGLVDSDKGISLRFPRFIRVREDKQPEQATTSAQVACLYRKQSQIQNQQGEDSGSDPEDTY

Broadly, the inhibition is the change of the read-out against control, counted positive when it falls. At DNA ligase 1 [1], `COc1ccc(OC)c(/C=C/c2cc(=O)oc3c2ccc2c(C)cccc23)c1` displayed an inhibition of less than 50%.

Regarding `O=c1cc(/C=C/c2ccc([N+](=O)[O-])cc2)c2ccc3ccccc3c2o1`, at DNA ligase 1 [1], the inhibition was greater than 90%.

Compound `Cc1ccc(/C=C2\CN(C(=S)NCc3ccccc3)C/C(=C\c3ccc(C)cc3)C2=O)cc1` came in with an inhibition on DNA ligase 1 [2] greater than 75%.

`O=C1/C(=C/c2ccc(F)cc2)CN(c2nc(-c3ccccc3)cs2)C/C1=C\c1ccc(F)cc1` returned an inhibition on DNA ligase 1 [2] greater than 75%.

`CCOC(=O)C1=C(C)NC(=S)NC1c1cc(/C=N/NC(=S)Nc2ccccc2)c(O)c(C(C)(C)C)c1` (stereo not given) gave an Activity with HEK293 of less than 80%. The inhibition at 100 µM in the data set with HCT-116, with MDA-MB-231, in the data set on HepG2, in the data set on DLD-1 and in the data set on A549 was less than 80% each time.

`CCOC(=O)C1=C(C)NC(=S)NC1c1cc(C)c(O)c(/C=N/NC(=O)Nc2ccc(Cl)cc2)c1` (stereo not given) yielded an Activity with HEK293 greater than 80%. In addition, the inhibition at 100 µM with HCT-116, in the data set on MDA-MB-231, in the data set with HepG2, with DLD-1 and with A549 was greater than 80% throughout.

As for `COc1cc(/C=C/c2cc(=O)oc3c2ccc2c(C)cccc23)c(OC)c(OC)c1OC`, on DNA ligase 1 [1], the inhibition is less than 50%.

In the case of `CC(C)c1ccc(/C=C2\CN(C(=S)NCc3ccccc3)C/C(=C\c3ccc(C(C)C)cc3)C2=O)cc1`, the inhibition at DNA ligase 1 [2] was greater than 75%.

Compound `COc1ccc(/C=C2\CN(C(=S)NCCc3ccccc3)C/C(=C\c3ccc(OC)cc3)C2=O)cc1` registered an inhibition against DNA ligase 1 [2] greater than 75%.

As for `COc1ccc(/C=C2\CN(c3nc(-c4ccccc4)cs3)C/C(=C\c3ccc(OC)cc3)C2=O)cc1`, the inhibition at DNA ligase 1 [2] was greater than 75%.

On DNA ligase 1 [2], `CCCCNC(=S)N1C/C(=C\c2ccc(OC)cc2)C(=O)/C(=C/c2ccc(OC)cc2)C1` had an inhibition greater than 75%.

In turn, `CCOC(=O)C1=C(C)NC(=O)NC1c1cc(/C=N/NC(=S)Nc2ccccc2)c(O)c(C(C)(C)C)c1` (stereo not given) registered an Activity in the data set with HEK293 greater than 80%. The inhibition at 100 µM in the data set with HCT-116, with MDA-MB-231, in the data set with HepG2, with DLD-1 and with A549 was greater than 80% throughout.

At DNA ligase 1 [1], `COc1ccc(/C=C/c2cc(=O)oc3c2ccc2ccccc23)cc1` registered an inhibition of less than 50%.

For `O=C1/C(=C/c2ccccc2F)CN(c2nc(-c3ccccc3)cs2)C/C1=C\c1ccccc1F`, the inhibition on DNA ligase 1 [2] is greater than 75%.

In turn, `N#Cc1ccc(/C=C/c2cc(=O)oc3c2ccc2ccccc23)cc1` displayed an inhibition against DNA ligase 1 [1] of less than 50%.

Take `COc1cccc2c1ccc1c(/C=C/c3ccc([N+](=O)[O-])cc3)cc(=O)oc12`: on DNA ligase 1 [1], the inhibition is greater than 90%.

Compound `CCOC(=O)C1=C(C)NC(=O)NC1c1cc(/C=N/NC(=O)Nc2cccc(OC)c2)c(O)c(C(C)(C)C)c1` (stereo not given) yielded an Activity in the data set with HEK293 greater than 80%. Further, the inhibition at 100 µM in the data set with HCT-116, in the data set on MDA-MB-231, in the data set on HepG2, in the data set with DLD-1 and in the data set with A549 was greater than 80% each time.

`COc1cccc(/C=C/c2cc(=O)oc3c2ccc2ccccc23)c1` registered an inhibition against DNA ligase 1 [1] of less than 50%.

Compound `COc1ccc(/C=C2\CN(C(=S)NCc3ccccc3)C/C(=C\c3ccc(OC)cc3)C2=O)cc1` displayed an inhibition against DNA ligase 1 [2] greater than 75%.

At DNA ligase 1 [1], `COc1cccc2c1ccc1c(/C=C/c3ccc(C#N)cc3)cc(=O)oc12` showed an inhibition greater than 90%.

On DNA ligase 1 [1], `COc1ccc(OC)c(/C=C/c2cc(=O)oc3c2ccc2c(OC)cccc23)c1` showed an inhibition of less than 50%.

Regarding `O=C1/C(=C/c2ccc(F)cc2)CN(C(=S)NCc2ccccc2)C/C1=C\c1ccc(F)cc1`, the inhibition on DNA ligase 1 [2] is greater than 75%.

As to `CCOC(=O)C1=C(C)NC(=O)NC1c1cc(/C=N/NC(=S)NC)c(O)c(C(C)(C)C)c1` (stereo not given), the Activity in the data set on HEK293 is given as greater than 80%. For the same compound, the inhibition at 100 µM with HCT-116, with MDA-MB-231, with HepG2, in the data set on DLD-1 and in the data set with A549 was greater than 80% throughout.

As to `COc1ccc(/C=C/c2cc(=O)oc3c2ccc2c(OC)cccc23)cc1`, at DNA ligase 1 [1], the inhibition is less than 50%.

`CN(C)c1ccc(/C=C/c2cc(=O)oc3c2ccc2ccccc23)cc1` yielded an inhibition against DNA ligase 1 [1] of less than 50%.

Compound `CCOC(=O)C1=C(C)NC(=O)NC1c1cc(C)c(O)c(/C=N/NC(=S)NC)c1` (stereo not given) came in with an Activity in the data set with HEK293 greater than 80%. Moreover, the inhibition at 100 µM in the data set on HCT-116, in the data set with MDA-MB-231, in the data set on HepG2, in the data set with DLD-1 and in the data set on A549 was greater than 80% each time.

`COc1ccc(OC)c(/C=C/c2cc(=O)oc3c2ccc2ccccc23)c1` had an inhibition against DNA ligase 1 [1] of less than 50%.

For the compound `CCOC(=O)C1=C(C)NC(=S)NC1c1cc(/C=N/NC(=S)Nc2ccc(Cl)cc2)c(O)c(C(C)(C)C)c1` (stereo not given), the Activity with HEK293 is less than 80%. For the same compound, the inhibition at 100 µM in the data set on HCT-116, in the data set on MDA-MB-231, with HepG2, in the data set with DLD-1 and in the data set on A549 was less than 80% in each case.

In the case of `O=c1cc(/C=C/c2ccccc2)c2ccc3ccccc3c2o1`, the inhibition at DNA ligase 1 [1] is less than 50%.

In the case of `COc1cccc(OC)c1/C=C/c1cc(=O)oc2c1ccc1c(OC)cccc12`, the inhibition against DNA ligase 1 [1] is less than 50%.

On DNA ligase 1 [1], `COc1cc(/C=C/c2cc(=O)oc3c2ccc2c(OC)cccc23)cc(OC)c1OC` returned an inhibition of less than 50%.

The compound `O=C1/C(=C/c2ccc(F)cc2)CN(C(=S)Nc2ccccc2)C/C1=C\c1ccc(F)cc1` displayed an inhibition against DNA ligase 1 [2] greater than 75%.

As for `CCOC(=O)C1=C(C)NC(=O)NC1c1cc(/C=N/NC(=O)Nc2ccc(F)cc2)c(O)c(C(C)(C)C)c1` (stereo not given), the Activity with HEK293 is greater than 80%. For the same compound, the inhibition at 100 µM with HCT-116, with MDA-MB-231, in the data set with HepG2, in the data set on DLD-1 and with A549 was greater than 80% throughout.

With `COc1cc(/C=C/c2cc(=O)oc3c2ccc2ccccc23)cc(OC)c1OC`, the inhibition on DNA ligase 1 [1] is less than 50%.

For `COc1cccc2c1ccc1c(/C=C/c3ccccc3)cc(=O)oc12`, the inhibition against DNA ligase 1 [1] is greater than 50%.

For the compound `O=C1/C(=C/c2ccccc2F)CN(C(=S)NC(=O)c2ccccc2)C/C1=C\c1ccccc1F`, on DNA ligase 1 [2], the inhibition was greater than 75%.

As for `Cc1cccc2c1ccc1c(/C=C/c3ccccc3)cc(=O)oc12`, the inhibition against DNA ligase 1 [1] is less than 50%.

As to `CC(C)c1ccc(/C=C2\CN(c3nc(-c4ccccc4)cs3)C/C(=C\c3ccc(C(C)C)cc3)C2=O)cc1`, the inhibition on DNA ligase 1 [2] is greater than 75%.

`CCOC(=O)C1=C(C)NC(=O)NC1c1cc(/C=N/NC(=O)Nc2ccc(Br)cc2)c(O)c(C(C)(C)C)c1` (stereo not given) registered an Activity with HEK293 greater than 80%. Further, the inhibition at 100 µM in the data set with HCT-116, in the data set on MDA-MB-231, in the data set on HepG2, in the data set with DLD-1 and in the data set with A549 was greater than 80% each time.

Turning to `COc1ccc(/C=C/c2cc(=O)oc3c2ccc2c(C)cccc23)c(OC)c1`, the inhibition against DNA ligase 1 [1] is greater than 90%.

`Cc1ccccc1/C=C1\CN(c2nc(-c3ccccc3)cs2)C/C(=C\c2ccccc2C)C1=O` registered an inhibition against DNA ligase 1 [2] greater than 75%.

Consider `Cc1ccccc1/C=C1\CN(C(=S)Nc2ccccc2)C/C(=C\c2ccccc2C)C1=O`, for which, on DNA ligase 1 [2], the inhibition is greater than 75%.

For `COc1ccc(/C=C/c2cc(=O)oc3c2ccc2ccccc23)cc1OC`, on DNA ligase 1 [1], the inhibition is less than 50%.

On to `COc1ccccc1/C=C/c1cc(=O)oc2c1ccc1c(C)cccc12`, for which the inhibition at DNA ligase 1 [1] was less than 50%.

For `Cc1ccccc1/C=C1\CN(C(=S)NCCc2ccccc2)C/C(=C\c2ccccc2C)C1=O`, the inhibition on DNA ligase 1 [2] was greater than 75%.

In the case of `COc1ccc(/C=C/c2cc(=O)oc3c2ccc2ccccc23)c(OC)c1`, on DNA ligase 1 [1], the inhibition was less than 50%.

The compound `CCOC(=O)C1=C(C)NC(=O)NC1c1cc(/C=N/NC(N)=S)c(O)c(C(C)(C)C)c1` (stereo not given) gave an Activity in the data set with HEK293 greater than 80%. Further, the inhibition at 100 µM with HCT-116, in the data set with MDA-MB-231, in the data set on HepG2, in the data set on DLD-1 and in the data set on A549 was greater than 80% in each case.

In turn, `COc1ccc(/C=C/c2cc(=O)oc3c2ccc2c(OC)cccc23)cc1OC` displayed an inhibition at DNA ligase 1 [1] greater than 50%.

Compound `CCOC(=O)C1=C(C)NC(=S)NC1c1cc(/C=N/NC(=S)Nc2ccc(C)cc2)c(O)c(C(C)(C)C)c1` (stereo not given) came in with an Activity with HEK293 of less than 80%. Moreover, the inhibition at 100 µM with HCT-116, with MDA-MB-231, in the data set on HepG2, in the data set on DLD-1 and in the data set with A549 was less than 80% each time.

In the data set with HEK293, `CCOC(=O)C1=C(C)NC(=O)NC1c1cc(/C=N/NC(N)=O)c(O)c(C(C)(C)C)c1` (stereo not given) registered an Activity of less than 80%. Besides, the inhibition at 100 µM in the data set with HCT-116, with MDA-MB-231, with HepG2, in the data set with DLD-1 and in the data set with A549 was less than 80% each time.

`COc1ccc(/C=C/c2cc(=O)oc3c2ccc2c(C)cccc23)cc1OC` had an inhibition at DNA ligase 1 [1] of less than 50%.

`COc1cc(/C=C/c2cc(=O)oc3c2ccc2c(C)cccc23)cc(OC)c1`: the inhibition against DNA ligase 1 [1] is greater than 50%.

With `COc1ccc(/C=C/c2cc(=O)oc3c2ccc2c(OC)cccc23)c(OC)c1`, at DNA ligase 1 [1], the inhibition was less than 50%.

Consider `Cc1cccc2c1ccc1c(/C=C/c3ccc([N+](=O)[O-])cc3)cc(=O)oc12`, for which the inhibition against DNA ligase 1 [1] is greater than 90%.

Regarding `Cc1ccc(/C=C2\CN(C(=S)Nc3ccccc3)C/C(=C\c3ccc(C)cc3)C2=O)cc1`, the inhibition on DNA ligase 1 [2] is greater than 75%.
